Results reported in patent US20030229053A1, “Compounds and methods for the treatment or prevention of flavivirus infections” (Shire BioChem Inc., priority 2001, published 2003).

What follows are compounds tested against recombinant HCV NS5B (Hepatitis C virus genotype 1b, UniProt P26663) (assay: biochemical). Details: flashplate, polyrA/biotinylated-oligo dT, 100 nM NS5B, 2 hrs at room temperature; read-out: RNA pol Assay 2 IC50 (μm).
Description: In vitro HCV RdRp Flashplate Scintillation Proximity Assay (Strep-Flash Assay) Used to Evaluate Analogues:
In brief, a 400 ng/μl polyrA solution (Amersham Pharmacia Biotech) was mixed volume-to-volume with 5′ biotin-oligo dT12 at 20 pmol/μl. The template and primers were denatured at 95 C for 5 minutes then incubated at 37 C for 10 minutes. Annealed template-primers were subsequently diluted in a Tris-HCl containing buffer and allowed to bind to streptavidin-coated flashplates overnight.

Chain of recombinant HCV NS5B (P26663 2420-3010 limits assumed): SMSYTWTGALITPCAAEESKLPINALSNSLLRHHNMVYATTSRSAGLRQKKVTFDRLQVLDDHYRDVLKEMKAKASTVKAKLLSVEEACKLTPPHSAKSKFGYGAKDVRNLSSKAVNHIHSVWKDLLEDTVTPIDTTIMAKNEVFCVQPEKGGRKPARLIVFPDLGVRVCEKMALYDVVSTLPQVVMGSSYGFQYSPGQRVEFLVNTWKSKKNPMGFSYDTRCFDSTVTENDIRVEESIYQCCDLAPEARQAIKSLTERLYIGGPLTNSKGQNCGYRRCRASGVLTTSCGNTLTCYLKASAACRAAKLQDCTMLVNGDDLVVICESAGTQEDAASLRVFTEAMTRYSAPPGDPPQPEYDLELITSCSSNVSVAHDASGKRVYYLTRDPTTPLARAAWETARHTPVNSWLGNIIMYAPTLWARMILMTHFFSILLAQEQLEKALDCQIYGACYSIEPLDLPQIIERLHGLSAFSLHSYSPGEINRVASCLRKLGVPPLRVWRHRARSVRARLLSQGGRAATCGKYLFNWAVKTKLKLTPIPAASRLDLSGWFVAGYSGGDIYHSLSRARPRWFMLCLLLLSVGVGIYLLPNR

Structure (SMILES) | IC50 [µM]
O=C(O)[C@H](Cc1ccccc1)N(Cc1sccc1-c1cc(F)cc(F)c1)C(=O)c1ccc(Cl)cc1Cl [compound #154, (2s)-2-{(2,4-Dichloro-benzoyl)-[3-(3,5-difluoro-phenyl)-thiophen-2-ylmethyl]-amino}-3-phenyl-propionic acid] | < 5
O=C(O)[C@H](Cc1ccccc1)N(Cc1sccc1-c1ccc(Cl)c(Cl)c1)C(=O)c1ccc(Cl)cc1Cl [compound #155, (2s)-2-{(2,4-Dichloro-benzoyl)-[3-(3,4-dichloro-phenyl)-thiophen-2-ylmethyl]-amino}-3-phenyl-propionic acid] | < 5
O=C(O)[C@H](Cc1ccccc1)N(Cc1sccc1-c1ccc(Cl)c(F)c1)C(=O)c1ccc(Cl)cc1Cl [compound #156, (2s)-2-[[3-(4-Chloro-3-fluoro-phenyl)-thiophen-2-ylmethyl]-(2,4-dichloro-benzoyl)-amino]-3-phenyl-propionic acid] | 5 to 20
O=C(O)[C@H](Cc1ccccc1)N(Cc1sccc1-c1ccc(Cl)cc1Cl)C(=O)c1ccc(Cl)cc1Cl [compound #157, (2s)-2-{(2,4-Dichloro-benzoyl)-[3-(2,4-dichloro-phenyl)-thiophen-2-ylmethyl]-amino}-3-phenyl-propionic acid] | 5 to 20
Cc1cccc(-c2ccsc2CN(C(=O)c2ccc(Cl)cc2Cl)[C@@H](Cc2ccccc2)C(=O)O)c1 [compound #158, (2s)-2-[(2,4-Dichloro-benzoyl)-(3-m-tolyl-thiophen-2-ylmethyl)-amino]-3-phenyl-propionic acid] | < 5
CCOC(=O)c1ccccc1-c1ccsc1CN(C(=O)c1ccc(Cl)cc1Cl)[C@@H](Cc1ccccc1)C(=O)O [compound #159, (2s)-2-(2-{[(1s-1-Carboxy-2-phenyl-ethyl)-(2,4-dichloro-benzoyl)-amino]-methyl}-thiophen-3-yl)-benzoic acid ethyl ester] | 5 to 20
CCOC(=O)c1ccc(-c2ccsc2CN(C(=O)c2ccc(Cl)cc2Cl)[C@@H](Cc2ccccc2)C(=O)O)cc1 [compound #160, (2s)-4-(2-{[(1s-1-Carboxy-2-phenyl-ethyl)-(2,4-dichloro-benzoyl)-amino]-methyl}-thiophen-3-yl)-benzoic acid ethyl ester] | < 5
O=C(O)[C@H](Cc1ccccc1)N(Cc1sccc1-c1cccc(F)c1)C(=O)c1ccc(Cl)cc1Cl [compound #161, (2s)-2-{(2,4-Dichloro-benzoyl)-[3-(3-fluoro-phenyl)-thiophen-2-ylmethyl]-amino}-3-phenyl-propionic acid] | 5 to 20
N#Cc1cccc(-c2ccsc2CN(C(=O)c2ccc(Cl)cc2Cl)[C@@H](Cc2ccccc2)C(=O)O)c1 [compound #162, (2s)-2-[[3-(3-Cyano-phenyl)-thiophen-2-ylmethyl]-(2,4-dichloro-benzoyl)-amino]-3-phenyl-propionic acid] | < 5
O=C(O)C(c1cccs1)N(Cc1ccc(-c2cccc(C(F)(F)F)c2)o1)C(=O)c1ccc(Cl)cc1Cl (stereo not drawn) [compound #163, {(2,4-Dichloro-benzoyl)-[5-(3-trifluoromethyl-phenyl)-furan-2-ylmethyl]-amino}-thiophen-2-yl-acetic acid] | 5 to 20
CC(C)(C)OC(=O)N1CCC[C@H]1CN(C(=O)c1ccc(Cl)cc1Cl)[C@@H](Cc1ccccc1)C(=O)O [compound #164, L-2-{[(1-Carboxy-2-phenyl-ethyl)-(2,4-dichloro-benzoyl)-amino]-methyl}-pyrrolidine-1-carboxylic acid #tert!-butyl ester] | 5 to 20
CC(C)(C)OC(=O)N1CCC[C@@H]1CN(C(=O)c1ccc(Cl)cc1Cl)[C@@H](Cc1ccccc1)C(=O)O [compound #165, d-2-{[(1-carboxy-2-phenyl-ethyl)-(2,4-dichloro-benzoyl)-amino]-methyl}-pyrrolidine-1-carboxylic acid #tert!-butyl ester] | 5 to 20
O=C(O)[C@H](Cc1ccccc1)N(C(=O)c1ccc(Cl)cc1Cl)C1CCN(C(=O)OCc2ccccc2)CC1 [compound #166, 4-[(1-Carboxy-2-phenyl-ethyl)-(2,4-dichloro-benzoyl)-amino]-piperidine-1-carboxylic acid benzyl ester] | 5 to 20
O=C(O)[C@H](Cc1ccccc1)N(C[C@@H]1CCCN1)C(=O)c1ccc(Cl)cc1Cl [compound #167, 1-2-[(2,4-Dichloro-benzoyl)-pyrrolidin-2-ylmethyl-amino]-3-phenyl-propionic acid] | 5 to 20
O=C(O)[C@H](Cc1ccccc1)N(Cc1cccnc1)C(=O)c1ccc(Cl)cc1Cl [compound #170, 2-[(2,4-Dichloro-benzoyl)-pyridin-3-ylmethyl-amino]-3-phenyl-propionic acid] | 5 to 20
O=C(O)C(Cc1ccccc1)N(Cc1ccc(C(F)(F)F)cc1)C(=O)c1ccc(Cl)cc1Cl (stereo not drawn) [compound #171, 2-[(2,4-Dichloro-benzoyl)-(4-trifluoromethyl-benzyl)-amino]-3-phenyl-propionic acid] | 5 to 20
O=C(O)C(Cc1ccccc1)N(Cc1ccc(OCc2ccc(F)cc2)cc1)C(=O)c1ccc(Cl)cc1Cl (stereo not drawn) [compound #172, 2-{(2,4-Dichloro-benzoyl)-[4-(4-fluoro-benzyloxy)-benzyl]-amino}-3-phenyl-propionic acid] | 5 to 20

Structure (SMILES) | IC50 [µM]
O=C(O)C(Cc1ccccc1)N(Cc1ccc(F)c(C(F)(F)F)c1)C(=O)c1ccc(Cl)cc1Cl (stereo not drawn) [compound #173, 2-[(2,4-Dichloro-benzoyl)-(4-fluoro-3-trifluoromethyl-benzyl)-amino]-3-phenyl-propionic acid] | 5 to 20
O=C(O)C(Cc1ccccc1)N(Cc1cccn1S(=O)(=O)c1ccccc1)C(=O)c1ccc(Cl)cc1Cl (stereo not drawn) [compound #174, 2-[(1-Benzenesulfonyl-1h-pyrrol-2-ylmethyl)-(2,4-dichloro-benzoyl)-amino]-3-phenyl-propionic acid] | 5 to 20
O=C(O)C(Cc1ccccc1)N(Cc1cccc(Oc2ccc(Cl)cc2)c1)C(=O)c1ccc(Cl)cc1Cl (stereo not drawn) [compound #175, 2-[[3-(4-Chloro-phenoxy)-benzyl]-(2,4-dichloro-benzoyl)-amino]-3-phenyl-propionic acid] | 5 to 20
O=C(O)C(Cc1ccccc1)N(Cc1ccccc1OCc1ccccc1)C(=O)c1ccc(Cl)cc1Cl (stereo not drawn) [compound #177, 2-[(2-Benzyloxy-benzyl)-(2,4-dichloro-benzoyl)-amino]-3-phenyl-propionic acid] | 5 to 20
COc1ccc(C(C)C)cc1-c1ccsc1CN(C(=O)c1ccc(Cl)cc1Cl)[C@@H](Cc1ccccc1)C(=O)O [compound #178, 2-{(2,4-Dichloro-benzoyl)-[3-(5-isopropyl-2-methoxy-phenyl)-thiophen-2-ylmethyl]-amino}-3-phenyl-propionic acid] | 5 to 20
O=C(O)[C@H](Cc1ccccc1)N(Cc1sccc1-c1ccc(OC(F)(F)F)cc1)C(=O)c1ccc(Cl)cc1Cl [compound #179, 2-{(2,4-Dichloro-benzoyl)-[3-(4-trifluoromethoxy-phenyl)-thiophen-2-ylmethyl]-amino}-3-phenyl-propionic acid] | 5 to 20
O=C(O)[C@H](Cc1ccccc1)N(Cc1sccc1-c1cccc(C(F)(F)F)c1)C(=O)c1ccc(Cl)cc1Cl [compound #180, 2-{(2,4-Dichloro-benzoyl)-[3-(3-trifluoromethyl-phenyl)-thiophen-2-ylmethyl]-amino}-3-phenyl-propionic acid] | 5 to 20
O=C(O)[C@H](Cc1ccccc1)N(Cc1sccc1-c1cc(C(F)(F)F)cc(C(F)(F)F)c1)C(=O)c1ccc(Cl)cc1Cl [compound #181, 2-[[3-(3,5-Bis-trifluoromethyl-phenyl)-thiophen-2-ylmethyl]-(2,4-dichloro-benzoyl)-amino]-3-phenyl-propionic acid] | 5 to 20
O=C(O)[C@H](Cc1ccccc1)N(Cc1sccc1-c1ccncc1)C(=O)c1ccc(Cl)cc1Cl [compound #182, 2-[(2,4-Dichloro-benzoyl)-(3-pyridin-4-yl-thiophen-2-ylmethyl)-amino]-3-phenyl-propionic acid] | 5 to 20
CSc1ccc(-c2ccsc2CN(C(=O)c2ccc(Cl)cc2Cl)[C@@H](Cc2ccccc2)C(=O)O)cc1 [compound #183, 2-{(2,4-Dichloro-benzoyl)-[3-(4-methylsulfanyl-phenyl)-thiophen-2-ylmethyl]-amino}-3-phenyl-propionic acid] | 5 to 20
O=C(O)[C@H](Cc1ccccc1)N(Cc1sccc1-c1ccc(F)cc1)C(=O)c1ccc(Cl)cc1Cl [compound #184, 2-{(2,4-Dichloro-benzoyl)-[3-(4-fluoro-phenyl)-thiophen-2-ylmethyl]-amino}-3-phenyl-propionic acid] | < 5
O=C(O)[C@H](Cc1ccccc1)N(Cc1sccc1-c1cccnc1)C(=O)c1ccc(Cl)cc1Cl [compound #185, 2-[(2,4-Dichloro-benzoyl)-(3-pyridin-3-yl-thiophen-2-ylmethyl)-amino]-3-phenyl-propionic acid] | < 5
O=C(O)[C@H](Cc1ccccc1)N(Cc1ccccc1Br)C(=O)c1ccc(Cl)cc1Cl [compound #187, 2-[(2-Bromo-benzyl)-(2,4-dichloro-benzoyl)-amino]-3-phenyl-propionic acid] | 5 to 20
CN(C(=O)c1ccc(Cl)cc1Cl)[C@@H](Cc1ccccc1Br)C(=O)O [compound #188, 3-(2-Bromo-phenyl)-2-[(2,4-dichloro-benzoyl)-methyl-amino]-propionic acid] | 5 to 20
CN(C(=O)c1ccc(Cl)cc1Cl)[C@H](Cc1ccc(Br)cc1)C(=O)O [compound #189, 3-(4-Bromo-phenyl)-2-[(2,4-dichloro-benzoyl)-methyl-amino]-propionic acid] | < 5
O=C(O)C(Cc1ccccc1)N(C(=O)c1ccc(Cl)cc1Cl)c1cccc(Br)c1 (stereo not drawn) [compound #190, 2-[(3-Bromo-phenyl)-(2,4-dichloro-benzoyl)-amino]-3-phenyl-propionic acid] | 5 to 20
